Measured values: patent US5318994A, “N-[2-(7-lower-alkoxynaphth-1-yl)ethyl]benzamides” (Adir et Compagnie, priority 1990, dated 1994)

Molecular target: melatonin receptors
Assay: Test of binding to melatonin receptors
Protocol: Binding of compounds of the invention to melatonin receptors was carried out according to conventional techniques.

## COc1ccc2[nH]cc(CCNC(C)=O)c2c1 [melatonin]
  Kd: 0.063 nM
